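Method: 48-hour compound exposure of cells in 96-well plates, five concentrations, linear interpolation of endpoints. Here, GI50 denotes the concentration required for 50% inhibition of growth. TGI: total growth inhibition.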
What was measured:
Experiment in all cases: NCI-60 cell line screen, 48 h
[1] = system: MCF7 breast
[2] = system: SNB-19 CNS
[3] = system: DU-145 prostate
[4] = system: SF-268 CNS
[5] = system: NCI-H522 lung
[6] = system: SK-MEL-2 melanoma
[7] = system: U251 CNS

With `C/C(=N/O)c1cccc(Nc2cc(-n3nnc4ccccc43)nc3ccccc23)c1` the GI50 [1] was 14.4 µM, the TGI [1] was > 55.6 µM and the GI50 [2] was 25.7 µM. For the same compound, the TGI [2] was > 100 µM, the GI50 [3] was 11.6 µM and the TGI [3] was 41.3 µM. The GI50 [4] was 17.2 µM, the TGI [4] was > 64 µM and the GI50 [5] was 19.4 µM. The TGI [5] was > 57.5 µM, the GI50 [6] was 28 µM and the TGI [6] was > 63.2 µM. The GI50 [7] was 20.4 µM and the TGI [7] was > 100 µM.

With `CC(C)=CCN1c2ccccc2NC(=O)CC1C` (stereo not given) the TGI [1] was > 100 µM, the TGI [2] was > 100 µM and the TGI [3] was > 100 µM. The TGI [4] was > 100 µM, the TGI [5] was > 100 µM and the TGI [6] was > 100 µM. For the same compound, the TGI [7] was > 100 µM.

In the case of `C[C@@H](NC(C#N)c1ccco1)c1ccccc1` (stereo not given in full), the TGI [1] is reported as > 100 µM, the TGI [2] is reported as > 100 µM and the TGI [3] is reported as > 100 µM. For the same compound, the TGI [4] was > 100 µM and the TGI [7] was > 100 µM.

`O=C1OCC2=C1C(c1cccc(F)c1)c1cc3c(cc1N2CCO)OCO3` (stereo not given) was tested, and the GI50 [1] was 1.44 µM, the TGI [1] was > 50 µM and the GI50 [2] was 3 µM. The TGI [2] was > 50 µM, the GI50 [3] was 2.71 µM and the TGI [3] was > 50 µM. For the same compound, the GI50 [4] was 3.2 µM, the TGI [4] was > 50 µM and the GI50 [5] was 0.259 µM. For the same compound, the TGI [5] was 29 µM, the GI50 [6] was 2.46 µM and the TGI [6] was > 50 µM. For the same compound, the GI50 [7] was 2.5 µM and the TGI [7] was > 50 µM.

With `CCSC1=NC2C(N(CC)C(=O)N2CC)N1/N=C/C=C/c1ccccc1[N+](=O)[O-]` (stereo not given) the GI50 [1] was 0.0415 µM, the TGI [1] was > 100 µM and the GI50 [2] was 0.372 µM. The TGI [2] was > 100 µM, the GI50 [3] was 0.325 µM and the TGI [3] was > 100 µM. For the same compound, the GI50 [4] was 0.486 µM, the TGI [4] was > 100 µM and the GI50 [5] was 0.0395 µM. The TGI [5] was 46.2 µM, the GI50 [6] was 0.567 µM and the TGI [6] was > 100 µM. The GI50 [7] was 0.174 µM and the TGI [7] was > 100 µM.

With `Cc1ccc2cnc(N)c(C#Cc3cc(C(=O)Nc4ccc(CN5CCN(C)CC5)c(C(F)(F)F)c4)cnc3C)c2c1` the GI50 [1] was 0.498 µM, the TGI [1] was 1.49 µM and the GI50 [2] was 0.891 µM. It also gave a TGI [2] of 1.89 µM, a GI50 [3] of 0.531 µM and a TGI [3] of 1.14 µM. The GI50 [4] was 0.559 µM, the TGI [4] was 1.27 µM and the GI50 [5] was 0.588 µM. The TGI [5] was 1.36 µM, the GI50 [6] was 0.761 µM and the TGI [6] was 1.73 µM. For the same compound, the GI50 [7] was 0.803 µM and the TGI [7] was 1.87 µM.

Work on `CC(=O)c1c(C(F)(F)F)n([O-])c2ccccc2[n+]1=O` yielded a GI50 [1] of 0.873 µM, a TGI [1] of 4.08 µM and a GI50 [2] of 4.77 µM. For the same compound, the TGI [2] was 18.5 µM, the GI50 [4] was 1.49 µM and the TGI [4] was 6.13 µM. For the same compound, the GI50 [5] was 2.46 µM, the TGI [5] was > 100 µM and the GI50 [6] was 4.56 µM. For the same compound, the TGI [6] was > 100 µM, the GI50 [7] was 2.17 µM and the TGI [7] was 14.5 µM.

For `C1CSCCCSCCCSCCCSCCCSCCCSCCCSCCCSC1`, the TGI [1] was > 100 µM, the TGI [2] was > 100 µM and the TGI [3] was > 100 µM. The TGI [4] was > 100 µM, the TGI [5] was > 100 µM and the TGI [6] was > 100 µM. For the same compound, the TGI [7] was > 100 µM.

With `N#C[Se]Cc1cc(-c2ccccc2)n(-c2ccc(S(N)(=O)=O)cc2)n1` the GI50 [1] was 0.42 µM, the TGI [1] was 9.78 µM and the GI50 [2] was 0.587 µM. For the same compound, the TGI [2] was 1.88 µM, the GI50 [3] was 0.735 µM and the TGI [3] was 2 µM. The GI50 [4] was 0.336 µM, the TGI [4] was 1.33 µM and the GI50 [5] was 2.14 µM. The TGI [5] was 5.55 µM, the GI50 [6] was 2.32 µM and the TGI [6] was 5.6 µM. It also gave a GI50 [7] of 0.544 µM and a TGI [7] of 1.78 µM.

With `O=S(=O)(/N=c1\scc(-c2ccccc2)n1-c1ccccc1)c1ccc(N2N=C3c4ccccc4CC3C2c2ccc(Cl)cc2)cc1` (stereo not given) the GI50 [1] was > 100 µM, the TGI [1] was > 100 µM and the GI50 [2] was 78.8 µM. The TGI [2] was > 100 µM, the GI50 [3] was 54.3 µM and the TGI [3] was > 100 µM. For the same compound, the GI50 [4] was > 100 µM, the TGI [4] was > 100 µM and the GI50 [5] was 22.7 µM. The TGI [5] was 82.3 µM, the GI50 [6] was 36 µM and the TGI [6] was > 100 µM. The GI50 [7] was 26.1 µM and the TGI [7] was 75.5 µM.

Reference: PubChem BioAssay (NCI)
